# Assay results reported in ChEMBL document CHEMBL3885881, “DrugMatrix”.
# Organism: Rattus norvegicus
# Assay: DrugMatrix - Regimen: Daily Repeat
# Type: toxicity, organism-based, Sprague-Dawley
# Parameters: regimen Daily Repeat, gender Male, age 6-8 weeks
# Settings: in vivo, po, 44 mg/kg, route oral GAVAGE, dose level Low, vehicle 100 % WATER; for ABSOLUTE BASOPHIL / ABSOLUTE EOSINOPHIL / ABSOLUTE LYMPHOCYTE / ABSOLUTE MONOCYTE / ABSOLUTE SEGMENTED NEUTROPHIL / BASOPHIL / EOSINOPHIL / ERYTHROCYTE COUNT / HEMATOCRIT / HEMOGLOBIN / LEUKOCYTE COUNT / LYMPHOCYTE / MEAN CORPUSCULAR HEMOGLOBIN / MEAN CORPUSCULAR HEMOGLOBIN CONCENTRATION / MEAN CORPUSCULAR VOLUME / MONOCYTE / NEUTROPHIL / NUCLEATED RED BLOOD CELLS / PLATELET COUNT: tissue Blood; for ALANINE AMINOTRANSFERASE / ALBUMIN / ALKALINE PHOSPHATASE / ASPARTATE AMINOTRANSFERASE / BLOOD UREA NITROGEN / CARBON DIOXIDE / CHLORIDE / CHOLESTEROL / CREATINE PHOSPHOKINASE / CREATININE / GLUCOSE / LACTATE DEHYDROGENASE / LIPASE / PHOSPHORUS / POTASSIUM / SODIUM / TOTAL BILIRUBIN / TOTAL PROTEIN / URIC ACID: tissue Plasma
structure (smiles),measurement,setting,value
Cn1c(=O)c2c(ncn2CC2OCCO2)n(C)c1=O [DOXOFYLLINE],ABSOLUTE BASOPHIL,"72 h, time 3 day",0 CELLS/uL
same,ABSOLUTE EOSINOPHIL,"72 h, time 3 day",159 CELLS/uL
same,ABSOLUTE LYMPHOCYTE,"72 h, time 3 day",15168.33 CELLS/uL
same,ABSOLUTE MONOCYTE,"72 h, time 3 day",106 CELLS/uL
same,ABSOLUTE SEGMENTED NEUTROPHIL,"72 h, time 3 day",1466.67 CELLS/uL
same,BASOPHIL,"72 h, time 3 day",0%
same,EOSINOPHIL,"72 h, time 3 day",1%
same,ERYTHROCYTE COUNT,"72 h, time 3 day",5.65 x10E6/uL
same,HEMATOCRIT,"72 h, time 3 day",36.33%
same,HEMOGLOBIN,"72 h, time 3 day",13.93 G/DL
same,LEUKOCYTE COUNT,"72 h, time 3 day",16.9 x10E3/uL
same,LYMPHOCYTE,"72 h, time 3 day",89.67%
same,MEAN CORPUSCULAR HEMOGLOBIN,"72 h, time 3 day",24.67 pg
same,MEAN CORPUSCULAR HEMOGLOBIN CONCENTRATION,"72 h, time 3 day",38.37 G/DL
same,MEAN CORPUSCULAR VOLUME,"72 h, time 3 day",64.23 fL
same,MONOCYTE,"72 h, time 3 day",0.67%
same,NEUTROPHIL,"72 h, time 3 day",8.67%
same,NUCLEATED RED BLOOD CELLS,"72 h, time 3 day",0 /100WBC
same,PLATELET COUNT,"72 h, time 3 day",1263 x10E3/uL
same,ALANINE AMINOTRANSFERASE,"72 h, time 3 day",51.33 u/L
same,ALBUMIN,"72 h, time 3 day",4.3 G/DL
same,ALKALINE PHOSPHATASE,"72 h, time 3 day",393.67 u/L
same,ASPARTATE AMINOTRANSFERASE,"72 h, time 3 day",90.67 u/L
same,BLOOD UREA NITROGEN,"72 h, time 3 day",15.67 mg/dL
same,CARBON DIOXIDE,"72 h, time 3 day",27 mmol/L
same,CHLORIDE,"72 h, time 3 day",100.33 MEQ/L
same,CHOLESTEROL,"72 h, time 3 day",80.67 mg/dL
same,CREATINE PHOSPHOKINASE,"72 h, time 3 day",250.67 u/L
same,CREATININE,"72 h, time 3 day",0.19 mg/dL
same,GLUCOSE,"72 h, time 3 day",159.33 mg/dL
same,LACTATE DEHYDROGENASE,"72 h, time 3 day",324 u/L
same,LIPASE,"72 h, time 3 day",9.67 u/L
same,PHOSPHORUS,"72 h, time 3 day",14.4 mg/dL
same,POTASSIUM,"72 h, time 3 day",7.21 MEQ/L
same,SODIUM,"72 h, time 3 day",145.63 MEQ/L
same,TOTAL BILIRUBIN,"72 h, time 3 day",0.17 mg/dL
same,TOTAL PROTEIN,"72 h, time 3 day",5.9 G/DL
same,URIC ACID,"72 h, time 3 day",1.83 mg/dL
same,ABSOLUTE BASOPHIL,"120 h, time 5 day",0 CELLS/uL
same,ABSOLUTE EOSINOPHIL,"120 h, time 5 day",0 CELLS/uL
same,ABSOLUTE LYMPHOCYTE,"120 h, time 5 day",14176.33 CELLS/uL
same,ABSOLUTE MONOCYTE,"120 h, time 5 day",62.33 CELLS/uL
same,ABSOLUTE SEGMENTED NEUTROPHIL,"120 h, time 5 day",1228 CELLS/uL
same,BASOPHIL,"120 h, time 5 day",0%
same,EOSINOPHIL,"120 h, time 5 day",0%
same,ERYTHROCYTE COUNT,"120 h, time 5 day",5.56 x10E6/uL
same,HEMATOCRIT,"120 h, time 5 day",36.17%
same,HEMOGLOBIN,"120 h, time 5 day",14.13 G/DL
same,LEUKOCYTE COUNT,"120 h, time 5 day",15.47 x10E3/uL
same,LYMPHOCYTE,"120 h, time 5 day",92.33%
same,MEAN CORPUSCULAR HEMOGLOBIN,"120 h, time 5 day",25.5 pg
same,MEAN CORPUSCULAR HEMOGLOBIN CONCENTRATION,"120 h, time 5 day",39.1 G/DL
same,MEAN CORPUSCULAR VOLUME,"120 h, time 5 day",65.23 fL
same,MONOCYTE,"120 h, time 5 day",0.33%
same,NEUTROPHIL,"120 h, time 5 day",7.33%
same,NUCLEATED RED BLOOD CELLS,"120 h, time 5 day",0 /100WBC
same,PLATELET COUNT,"120 h, time 5 day",1347.67 x10E3/uL
same,ALANINE AMINOTRANSFERASE,"120 h, time 5 day",51 u/L
same,ALBUMIN,"120 h, time 5 day",4.17 G/DL
same,ALKALINE PHOSPHATASE,"120 h, time 5 day",318.33 u/L
same,ASPARTATE AMINOTRANSFERASE,"120 h, time 5 day",80 u/L
same,BLOOD UREA NITROGEN,"120 h, time 5 day",17.33 mg/dL
same,CARBON DIOXIDE,"120 h, time 5 day",29 mmol/L
same,CHLORIDE,"120 h, time 5 day",100 MEQ/L
same,CHOLESTEROL,"120 h, time 5 day",75.33 mg/dL
same,CREATINE PHOSPHOKINASE,"120 h, time 5 day",240 u/L
same,CREATININE,"120 h, time 5 day",0.17 mg/dL
same,GLUCOSE,"120 h, time 5 day",165.33 mg/dL
same,LACTATE DEHYDROGENASE,"120 h, time 5 day",290 u/L
same,LIPASE,"120 h, time 5 day",9.67 u/L
same,PHOSPHORUS,"120 h, time 5 day",12.97 mg/dL
same,POTASSIUM,"120 h, time 5 day",6.07 MEQ/L
same,SODIUM,"120 h, time 5 day",146.03 MEQ/L
same,TOTAL BILIRUBIN,"120 h, time 5 day",0.17 mg/dL
same,TOTAL PROTEIN,"120 h, time 5 day",6.07 G/DL
same,URIC ACID,"120 h, time 5 day",1.5 mg/dL
